Like-named read-outs stand apart in the source and are kept apart here.

Experimental findings from patent publication US7736624B2, “Methods and compositions for diagnostic and therapeutic targeting of COX-2” (priority 2006, dated 2010) are described below.

One data set deals with T1, COX-2 (Mus musculus, UniProt Q05769).
T1 construct: metabolism by the newly synthesized COX-2; endogenous in cells
T1 sequence (Q05769 18-604): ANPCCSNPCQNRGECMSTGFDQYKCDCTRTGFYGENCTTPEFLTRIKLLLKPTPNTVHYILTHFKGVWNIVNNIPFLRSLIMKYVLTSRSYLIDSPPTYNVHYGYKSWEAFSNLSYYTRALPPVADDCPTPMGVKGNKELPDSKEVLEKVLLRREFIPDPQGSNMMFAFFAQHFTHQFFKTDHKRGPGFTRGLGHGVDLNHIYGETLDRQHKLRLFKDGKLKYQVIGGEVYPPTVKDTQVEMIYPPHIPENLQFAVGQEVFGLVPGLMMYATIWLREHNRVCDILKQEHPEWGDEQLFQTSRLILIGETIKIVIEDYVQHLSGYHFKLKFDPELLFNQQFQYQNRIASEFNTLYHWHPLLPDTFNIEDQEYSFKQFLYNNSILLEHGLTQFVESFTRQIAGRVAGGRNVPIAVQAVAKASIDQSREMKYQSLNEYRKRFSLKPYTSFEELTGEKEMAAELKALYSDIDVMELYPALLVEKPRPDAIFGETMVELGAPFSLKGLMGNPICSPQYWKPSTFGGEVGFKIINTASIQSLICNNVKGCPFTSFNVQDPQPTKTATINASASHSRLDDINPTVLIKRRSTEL
Briefly: Macrophage assay (RAW264.7), COX-2. In kind it is cell-based, murine. From the text:
(§1) Thus, NSAID derivatives that are identified as potentially useful in the methods described herein can be further tested using, for example, the RAW264.7 murine macrophage cell line. These cells are readily available (for example, from the American Type Culture Collection (ATCC), Manassas, Va., United States of America) and are easily cultured in large numbers. They normally express low levels of COX-1 and very low to undetectable levels of COX-2. Upon exposure to bacterial lipopolysaccharide (LPS), however, COX-2 levels increase dramatically over the ensuing 24 hour period, and the cells produce PGD2 and PGE2 from endogenous arachidonic acid stores (generally, ˜1 nmol/10^7 cells total PG formation). After LPS exposure, the addition of exogenous arachidonic acid results in the formation of additional PGD2 and PGE2 as a result of metabolism by the newly synthesized COX-2.
(§2) This system provides a number of approaches for testing the inhibitory potency of COX-2-selective ligands (e.g., inhibitors). In general, following LPS activation, cells can be treated for 30 minutes with the desired concentrations of candidate derivative(s) in DMSO. ^14C-arachidonic acid can be added, and the cells can be incubated for 15 minutes at 37° C. Product formation can be assessed following extraction and TLC separation of the culture medium. Alternatively, the effects of candidate derivatives on PG synthesis from endogenous arachidonic acid can be assessed by incubating cells with desired concentrations of candidate derivatives 30 minutes prior to LPS exposure. Following a 24-hour incubation, medium can be collected and extracted, and the amount of PGD2 and/or PGE2 can be assayed by gas chromatography-mass spectrometry, liquid chromatography-mass spectrometry, or ELISA.

A further data set in a line: Fluorescence in buffer. In kind it is physicochemical. The conditions noted are these: for Fluor. λem: emission; for Fluor. λex: excitation.
Another data set addresses T2, COX-1 (Mus musculus, UniProt P22437).
T2 sequence (P22437 1-602): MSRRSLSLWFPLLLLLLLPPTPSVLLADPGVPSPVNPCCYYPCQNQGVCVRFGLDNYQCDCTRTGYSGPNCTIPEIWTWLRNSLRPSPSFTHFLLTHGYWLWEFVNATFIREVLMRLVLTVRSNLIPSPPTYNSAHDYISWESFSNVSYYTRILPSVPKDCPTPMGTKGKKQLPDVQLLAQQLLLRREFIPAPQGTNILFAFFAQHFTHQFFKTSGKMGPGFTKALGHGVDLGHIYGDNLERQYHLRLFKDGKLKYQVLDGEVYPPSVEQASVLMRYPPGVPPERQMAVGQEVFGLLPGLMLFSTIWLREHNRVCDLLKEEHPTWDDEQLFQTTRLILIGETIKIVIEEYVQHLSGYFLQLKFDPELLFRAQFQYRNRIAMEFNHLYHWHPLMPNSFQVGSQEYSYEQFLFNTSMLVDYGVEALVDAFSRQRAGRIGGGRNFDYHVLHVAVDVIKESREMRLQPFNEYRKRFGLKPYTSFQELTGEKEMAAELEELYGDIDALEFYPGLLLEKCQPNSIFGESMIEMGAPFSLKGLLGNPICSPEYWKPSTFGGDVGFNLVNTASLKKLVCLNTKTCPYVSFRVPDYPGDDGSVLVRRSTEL
Briefly: Macrophage assay (RAW264.7), COX-1. The class given is cell-based, murine.
Excerpt: as §1, §2

The mark [1] stands for this setting: Table 3, macrophage assay, read-out: IC50 COX-2.

Usually IC50 stands for the concentration that inhibits the measured activity by half. On to `COc1ccc2c(c1)c(CC(=O)NCCCCNC(=O)Cc1ccc(Nc3ccc([N+](=O)[O-])c4nonc34)cc1)c(C)n2C(=O)c1ccc(Cl)cc1` [Compound 27ii, N-([2-{4-(7-nitrobenzo[1,2,5]oxadiazol-4-ylamino)phenyl}acetamido]but-4-yl)-2-{1-(4-chlorobenzoyl)-5-methoxy-2-methyl-1H-indol-3-yl]acetamide], for which the IC50 was 5.7e-07 M at COX-2 (setting [1]) and over 1e-05 M on COX-1 (Table 3, macrophage assay). For the same molecule, the “Fluor. λem” value in “Fluorescence in buffer” amounted to 605 nm. In addition, in the data set “Fluorescence in buffer”, the “Fluor. λex” value is recorded as 492 nm.

On to `COC(=O)c1cc(-c2ccc(C)cc2)n(-c2ccc(S(N)(=O)=O)cc2)n1` [Compound 30b], for which the IC50 on COX-2 (Table 2, macrophage assay (M), read-out: IC50 COX-2) was 1.1e-07 M; on COX-1 (Table 2, macrophage assay (M)), over 5e-06 M.

`COc1ccc2c(c1)c(CC(=O)NCCCCNC(=O)c1ccc(C(=O)O)c(-c3c4ccc(=O)cc-4oc4cc(O)ccc34)c1)c(C)n2C(=O)c1ccc(Cl)cc1` [Compound 27qq, N-[(Fluorescein-6-carboxylamido)but-4-yl]-2-[1-(4-chlorobenzoyl)-5-methoxy-2-methyl-1H-indol-3-yl)acetamide]: the IC50 at COX-2 (setting [1]) is 1.88e-07 M; against COX-1 (Table 3, macrophage assay), over 5e-06 M.

As to `COc1ccc2c(c1)c(CC(=O)NCCNS(=O)(=O)c1ccc(/N=N/c3ccc(N(C)C)cc3)cc1)c(C)n2C(=O)c1ccc(Cl)cc1` [Compound 27aa, N-(2-Dabsylaminoethyl)-2-{1-(4-chlorobenzoyl)-5-methoxy-2-methyl-1H-indol-3-yl}acetamide], the IC50 was 1.8e-07 M at COX-2 (setting [1]) and over 2.5e-06 M against COX-1 (Table 3, macrophage assay). For the same molecule, the “Fluor. λem” value in “Fluorescence in buffer” is given as 450 nm. In addition, the “Fluor. λex” value in the data set “Fluorescence in buffer” is on record as 390 nm.

As for `COc1ccc2c(c1)c(CC(=O)NCCCCNC(=O)c1ccc(C(=O)[O-])c(C3=c4cc5c6c(c4Oc4c3cc3c7c4CCCN7CCC3)CCC[N+]=6CCC5)c1)c(C)n2C(=O)c1ccc(Cl)cc1` [Compound 27vv], in “Fluorescence in buffer”, the “Fluor. λem” value amounted to 603 nm and the “Fluor. λex” value is 581 nm. The same molecule had an IC50 on COX-1 (Table 3, macrophage assay) of over 5e-06 M.

In the case of `CC[N+](CC)=c1ccc2c(-c3ccccc3)c(C)c(/C=C/C=C3/N(CCCCCC(=O)NCCCCNC(=O)Cc4c(C)n(C(=O)c5ccc(Cl)cc5)c5ccc(OC)cc45)c4ccc(S(=O)(=O)[O-])cc4C3(C)C)oc-2c1` [Compound 27ttt], at COX-2 (setting [1]), the IC50 is 8.9e-07 M. In “Fluorescence in buffer”, the “Fluor. λem” value came out at 731 nm and the “Fluor. λex” value is 710 nm. This molecule also displayed an IC50 against COX-1 (Table 3, macrophage assay) of over 5e-06 M.

For `COc1ccc2c(c1)c(CC(=O)NCCNS(=O)(=O)c1cccc3c(N(C)C)cccc13)c(C)n2C(=O)c1ccc(Cl)cc1` [Compound 27x], the IC50 is 3e-08 M on COX-2 (setting [1]) and over 1e-06 M against COX-1 (Table 3, macrophage assay). The “Fluor. λem” value in “Fluorescence in buffer” is recorded as 493 nm. Further, in “Fluorescence in buffer”, the “Fluor. λex” value is 355 nm.

On to `CC[N+](CC)=c1ccc2nc3c(cc(NC(=O)CCOCCOCCOCCOCCNC(=O)Cc4c(C)n(C(=O)c5ccc(Cl)cc5)c5ccc(OC)cc45)c4ccccc43)oc-2c1` [Compound 27uu, N-[5-)1-{1-(4-chlorobenzoyl)-5-methoxy-2-methyl-1H-indol-3-yl}-2-6,9,12,15-tetraoxa-3-azaoctadecanamido]-9H-benzo[a]penoxazin-9-ylidene)-N-ethylethanaminium perchlorate], for which, at COX-2 (setting [1]), the IC50 amounted to 8.5e-08 M. Moreover, in the data set “Fluorescence in buffer”, the “Fluor. λem” value was found to be 670 nm and the “Fluor. λex” value was determined as 618 nm. Further, on COX-1 (Table 3, macrophage assay), the IC50 is over 2.5e-05 M.

For the molecule `COc1ccc2c(c1)c(CC(=O)NCCCCNC(=O)c1ccc(C3=c4cc5c6c(c4Oc4c3cc3c7c4CCCN7CCC3)CCC[N+]=6CCC5)c(C(=O)[O-])c1)c(C)n2C(=O)c1ccc(Cl)cc1` [Compound 27eee], the IC50 was 3.2e-07 M on COX-2 (read-out: IC50 in RAW 264.7 cells) and over 5e-06 M against COX-1 (Table 3, macrophage assay).
